For one test, the target named is T1, LARG (DH/PH) (Homo sapiens, UniProt Q9NZN5).
T1 construct: the catalytic domain (DH/PH) of the RhoGEF LARG served as negative control; MBP; made in house
Nature of the test: Microscale thermophoresis (MST) binding. Particulars: no saturation at highest concentration tested, read-out: Kd, best estimate. As to the method: (§1) FIG. 14: IODVA1 targets Vav3 in vitro and in vivo. (A) Ba/F3 cells expressing empty vector Mieg3 or p190-BCR-ABL1 were treated with vehicle control or IODVA1 (IO1, 3 μM) for 30 min and incubated with GST-Rac and glutathione beads. Beads were washed and the protein complexes were separated on SDS-PAGE and immunoblotted for pVav3. Input Vav3 was used as control. (B) Binding affinity (Kd) between IODVA1 and Vav3 (green), LARG (brown), and RacGDP (blue). […] Error bars=SD; N=3. (C) Quantification of the average number of colonies made by bone marrow wild-type (black) and Vav3^−/− (lilac) p190-BCR-ABL1 leukemic cells treated with vehicle control or IODVA1 (IO1, 1 and 3 μM) (* p≤0.05; ** p≤0.01; *** p≤0.001; ns, not significant). (D) Representative histogram data of the cell cycle analysis of wild-type (black and grey bars) and Vav3^−/− (dark and light lilac) bone marrow cells expressing p190-BCR-ABL and treated with vehicle control or IODVA1 (IO1, 3 μM) for 20 h. (E) Quantification by densitometry of the pVav3 band from FIG. 14A. […]
(§2) To test this hypothesis, we measured its binding affinity (Kd) to recombinant Vav3 and Rac1 using microscale thermophoresis (MST); the catalytic domain (DH/PH) of the RhoGEF LARG served as negative control. […] Second, like Vav3, LARG contains a DH/PH domain responsible for the exchange activity such that any non-specific binding to this domain should be detected. […]

In test [1] the test system is Vav3−/− p190-BCR-ABL1 BM leukemic cells expressing ΔCH-mutant Vav3. Nature of the test: Vav3 rescue, cell cycle analysis. In kind it is cell-based, murine. As to conditions: even at the highest concentration. From the text:
(§3) FIG. 15: Expression of transgenic Vav3 re-sensitizes Vav3-deficient cells to IODVA1. (A) Vav3 domain structure, calponin-homology (CH), acidic region (Ac), Dbl-homology (DH), pleckstrin-homology (PH), zinc finger (ZF), Src-homology 2 and 3 (SH2/SH3). (B) Representative histogram data of the cell cycle analysis of wild-type (Vav3^+/+) and Vav3-deficient (Vav3^−/−) p190-BCR-ABL1 leukemic bone marrow cells expressing empty vector, full-length Vav3 or ΔCH mutant and treated with vehicle control (black) or IODVA1 at 5 (red) or 10 μM (dark grey) for 18 h. (C) Quantification of the average number of colonies made by bone marrow wild-type and Vav3^−/− p190-BCR-ABL1 leukemic bone marrow cells expressing empty vector, full-length Vav3 or ΔCH mutant and treated with vehicle control (black) or IODVA1 at 1 (light salmon), 5 (red) and 10 μM (dark grey). *** p≤0.001.
(§4) Next, we reasoned that if IODVA1 targets Vav3, rescuing Vav3^−/− leukemic cells by expressing exogenous Vav3 should re-sensitize those cells to IODVA1. We expressed full-length Vav3 or the dominant active ΔCH-mutant (FIG. 15A) in Vav3^−/− p190-BCR-ABL1-transformed murine bone marrow leukemic cells and analyzed changes in cell cycle 18 h post-treatment with vehicle control or IODVA1 (FIG. 15B). Expressing full-length Vav3 but not the empty vector re-sensitized the Vav3^−/− BM leukemic cells to IODVA1 as shown by a 5.8-fold increase in apoptosis (p=0.0005) and a 15% decrease (p=0.08) in cells in the S-phase at 10 μM.
(§5) For Vav3 rescue experiments, low density bone marrow cells from wild-type ([…]) or Vav3^−/− mice were transduced with bicistronic retroviral vector encoding p190 BCR-ABL1-IRES-YFP (yellow fluorescent protein) and YFP^+ cells were sorted 48 h post-transduction. […] Cell cycle was analyzed at 18 h post BrdU incorporation.
(§6) Cell cycle was analyzed by using in vitro incorporation of 5-Bromo-2-deoxyuridine using Brdu Flow kit (BD Pharmingen, Cat #552598). […] DNAse treatment was done according to the instructions and stained with anti BrdU and apoptosis was analyzed by 7-AAD staining through flow cytometry analysis.

Test [2] has as its system Vav3−/− p190-BCR-ABL1 BM leukemic cells expressing full-length Vav3. Nature of the test: Vav3 rescue, cell cycle analysis. In kind it is cell-based, murine. Particulars: 10 μM, 18 h.
Source text: as §3, §4, §5, §6

A further test has as its target T2, Rac1 (Homo sapiens, UniProt P63000).
T2 construct: His6 (N); made in house
Briefly: Microscale thermophoresis (MST) binding. As to conditions: no saturation at highest concentration tested, read-out: Kd, best estimate. As to the method: as §1, §2

SMILES strings stand for the structures.

T1 sequence (Q9NZN5 765-1138 limits assumed): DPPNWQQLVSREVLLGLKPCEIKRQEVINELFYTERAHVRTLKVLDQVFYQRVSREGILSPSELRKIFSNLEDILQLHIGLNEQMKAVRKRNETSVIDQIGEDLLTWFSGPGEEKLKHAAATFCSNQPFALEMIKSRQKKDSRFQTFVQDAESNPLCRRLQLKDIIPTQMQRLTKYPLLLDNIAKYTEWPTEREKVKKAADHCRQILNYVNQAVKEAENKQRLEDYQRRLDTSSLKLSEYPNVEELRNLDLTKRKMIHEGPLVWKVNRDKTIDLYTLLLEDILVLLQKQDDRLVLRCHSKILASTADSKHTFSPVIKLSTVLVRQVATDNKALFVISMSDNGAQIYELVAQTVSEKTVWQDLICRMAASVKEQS

Regarding `OC1(c2ccccn2)N=C(Nc2nc3ccccc3[nH]2)N=C1c1ccccn1` (centres unmarked) [IODVA1, (Z)-2-((1H-benzo[d]imidazol-2-yl)imino)-4,5-di(pyridin-2-yl)-2,5-dihydro-1H-imidazol-5-ol], the Kd (in general, a measure of binding affinity in units of concentration) was around 7.7 µM on LARG (DH/PH) and around 35.5 µM at Rac1. In addition, the “re-sensitization to IODVA1” value in test [1] is “did not re-sensitize”. In addition, the increase in apoptosis in test [2] (p=0.0005) amounted to 5.8 fold. Besides, the “decrease in cells in the S-phase” value in test [2] (p=0.08) was 15%.
